According to ChEMBL document CHEMBL5356944, “Pharmacological overview of hederagenin and its derivatives” (RSC Med Chem, 2023):
In brackets after ≈: the same amount, converted by molar mass.

Key:
[1] = system: Leishmania mexicana; assay: Antileishmanial activity against Leishmania mexicana amastigotes assessed as effective dose; conditions: read-out: ED50 (the source's name)
[2] = Anticancer activity against human KBV cells xenografted in nude mouse assessed as reduction in tumor weight at 10 mg/kg relative to control; type: functional; design: scale not given: the % may be the effect or the level left
[3] = Anticancer activity against human KBV cells assessed as cell survival rate in presence of paclitaxel
[4] = system: A-431; assay: Cytotoxicity against human A-431 cells assessed as reduction in cell viability measured after 72 hrs by MTT assay; type: functional, cell-based; conditions: A-431, 72 h
[5] = system: MCF7; assay: Cytotoxicity against human MCF7 cells assessed as reduction in cell viability measured after 72 hrs by MTT assay; type: functional, cell-based; conditions: MCF7, 72 h
[6] = system: A549; assay: Cytotoxicity against human A549 cells assessed as reduction in cell viability measured after 72 hrs by MTT assay; type: functional, cell-based; conditions: A549, 72 h
[7] = system: RAW264.7; assay: Antiinflammatory activity in mouse RAW264.7 cells assessed as inhibition of LPS/IFNgamma-induced nitric oxide production; type: functional
[8] = system: T47D; assay: Cytotoxicity against human T47D cells assessed as reduction in cell viability measured after 72 hrs by MTT assay; type: functional, cell-based
[9] = system: HL-60; assay: Cytotoxicity against human HL-60 cells assessed as reduction in cell viability measured after 72 hrs by MTT assay; type: functional, cell-based; conditions: HL-60, 72 h
[10] = system: HT-1080; assay: Cytotoxicity against human HT-1080 cells assessed as reduction in cell viability measured after 72 hrs by MTT assay; type: functional, cell-based; conditions: HT-1080, 72 h
[11] = system: A549; assay: Cytotoxicity against human A549 cells assessed as reduction in cell viability measured after 24 hrs by MTT assay; type: functional, cell-based; conditions: A549, 24 h
[12] = system: RAW264.7; assay: Anti-inflammatory activity against mouse RAW264.7 cells assessed as inhibition of LPS-induced NO production; type: functional, cell-based
[13] = system: HepG2; assay: Antiproliferative activity against human HepG2 cells assessed as reduction in cell viability after 48 hrs by MTT assay; type: functional, cell-based; conditions: HepG2, 48 h
[14] = Cytotoxicity against mouse L929 cells assessed as reduction in cell viability; type: toxicity, cell-based
[15] = system: A549; assay: Antitumor activity against human A549 cells assessed as cell growth inhibition
[16] = system: HeLa; assay: Antiproliferative activity against human HeLa cells assessed as reduction in cell viability measured after 72 hrs by MTT assay; type: functional, cell-based
[17] = system: Toxoplasma gondii; assay: Antiparasitic activity against Toxoplasma gondii infected in human HeLa cells assessed as inhibition of cell growth relative to control; type: functional
[18] = system: A549; assay: Inhibition of colony formation in human A549 cells measured after 24 to 48 hrs by crystal violet staining based analysis; type: functional; conditions: time 24-48 hrs
[19] = system: Staphylococcus aureus; assay: Antibacterial activity against Staphylococcus aureus KCTC 503 assessed as reduction in bacterial growth; type: functional
[20] = system: A549; assay: Cytotoxicity against human A549 cells assessed as reduction in cell growth incubated for 48 hrs by Alamar blue assay; type: functional, cell-based; conditions: A549, 48 h
[21] = system: Enterococcus faecalis; assay: Antibacterial activity against Enterococcus faecalis assessed as reduction in bacterial cell growth; type: functional
[22] = system: BT-20; assay: Cytotoxicity against human BT-20 cells assessed as reduction in cell viability incubated for 48 hrs by Alamar blue assay; type: functional, cell-based; conditions: BT-20, 48 h
[23] = system: LoVo; assay: Antiproliferative activity against human LoVo cells assessed as reduction in cell viability incubated for 48 hrs by MTT assay; type: functional, cell-based
[24] = Elimination rate constant in rat plasma; type: ADME, cell-free
[25] = Tmax in rat plasma; type: ADME, cell-free
[26] = system: LoVo; assay: Antiproliferative activity against human LoVo cells assessed as reduction in cell viability incubated for 24 hrs by MTT assay; type: functional, cell-based
[27] = Half life in rat plasma; type: ADME, cell-free
[28] = system: NCI-H1299; assay: Inhibition of colony formation in human NCI-H1299 cells assessed as reduction in number of colonies measured after 24 to 48 hrs by crystal violet staining based assay; type: functional; conditions: time 24-48 hrs
[29] = system: Streptococcus mutans; assay: Antibacterial activity against Streptococcus mutans ATCC 25175 assessed as reduction in microbial growth after 24 hrs by agar well diffusion assay; type: functional

SMILES: CC1(C)CC[C@]2(C(=O)O)CC[C@]3(C)C(=CC[C@@H]4[C@@]5(C)CC[C@H](O)[C@@](C)(C=O)[C@@H]5CC[C@]43C)[C@@H]2C1
- EC50 [1]: 9.6 µM

SMILES: CC1(C)CC[C@]2(C(=O)OCc3ccccc3)CC[C@]3(C)C(=CC[C@@H]4[C@@]5(C)Cc6nccnc6[C@@](C)(CO)[C@@H]5CC[C@]43C)[C@@H]2C1
- Activity [2]: 41.88%
- Activity [3]: 25.34%

SMILES: CC1(C)CC[C@]2(NC(=O)N3CCC[C@H]3C(=O)O)CC[C@]3(C)C(=CC[C@@H]4[C@@]5(C)CC[C@@H]6OC(C)(C)OC[C@@]6(C)[C@@H]5CC[C@]43C)[C@@H]2C1
- EC50 [1]: 81.1 µM

SMILES: CC(=O)OC[C@@]1(C)[C@@H]2CC[C@]3(C)[C@H](CC=C4[C@@H]5CC(C)(C)CC[C@]5(NC(=O)N5CCCC5)CC[C@]43C)[C@@]2(C)CC[C@@H]1O
- EC50 [1]: 10.4 µM

SMILES: CC1(C)CC[C@]2(C(=O)O)CC[C@]3(C)C(=CC[C@@H]4[C@@]5(C)CC[C@@H]6OC(C)(C)OC[C@@]6(C)[C@@H]5CC[C@]43C)[C@@H]2C1
- EC50 [1]: 83.6 µM

SMILES: CC(=O)OC[C@H](OC(C)=O)[C@H](OC(C)=O)[C@@H](OC(C)=O)[C@@H]1OC[C@@]2(C)[C@@H]3CC[C@]4(C)[C@H](CC=C5[C@@H]6CC(C)(C)CC[C@]6(C(=O)O)CC[C@]54C)[C@@]3(C)CC[C@@H]2O1
- EC50 [1]: 7.2 µM

SMILES: CC1(C)CC[C@]2(N=C=O)CC[C@]3(C)C(=CC[C@@H]4[C@@]5(C)CC[C@@H]6OC(C)(C)OC[C@@]6(C)[C@@H]5CC[C@]43C)[C@@H]2C1
- EC50 [1]: 0.9 µM

SMILES: CC1(C)CC[C@]2(C(=O)OCc3ccccc3)CC[C@]3(C)C(=CC[C@@H]4[C@@]5(C)CC[C@@H]6O[C@H]([C@H]7O[C@H](O)[C@H](O)[C@@H](O)[C@@H]7O)OC[C@@]6(C)[C@@H]5CC[C@]43C)[C@@H]2C1
- EC50 [1]: 6 µM

SMILES: CC1(C)CC[C@]2(C(=O)OCc3ccccc3)CC[C@]3(C)C(=CC[C@@H]4[C@@]5(C)CC[C@@H]6O[C@H]([C@H](OCc7ccccc7)[C@@H](OCc7ccccc7)[C@H](COCc7ccccc7)OCc7ccccc7)OC[C@@]6(C)[C@@H]5CC[C@]43C)[C@@H]2C1
- EC50 [1]: 4.5 µM

SMILES: C[C@H](O)[C@H]1OC(CC2OC[C@@]3(C)[C@@H]4CC[C@]5(C)[C@H](CC=C6[C@@H]7CC(C)(C)CC[C@]7(C(=O)O)CC[C@]65C)[C@@]4(C)CC[C@@H]3O2)[C@@H](O)[C@@H]1O (some centres undefined)
- EC50 [1]: 10.3 µM

SMILES: CC1(C)CC[C@]2(C(=O)O)CC[C@]3(C)C(=CC[C@@H]4[C@@]5(C)CC[C@@H]6O[C@H](c7ccccc7)OC[C@@]6(C)[C@@H]5CC[C@]43C)[C@@H]2C1
- EC50 [1]: 10 µM

SMILES: COC(=O)[C@]12CCC(C)(C)C[C@H]1C1=CC[C@@H]3[C@@]4(C)C=C(C#N)C(=O)[C@@](C)(CO)[C@@H]4CC[C@@]3(C)[C@]1(C)CC2
- EC50 [4]: 1.7 µM
- EC50 [5]: 2.25 µM
- EC50 [6]: 7.94 µM
- Activity [7]: 1.6 µM
- EC50 [8]: 3.91 µM
- EC50 [9]: 0.548 µM
- EC50 [10]: 3.03 µM

SMILES: Cc1cncc(C(=O)OCCOC(=O)[C@]23CCC(C)(C)C[C@H]2C2=CC[C@@H]4[C@@]5(C)CC[C@H](O)[C@@](C)(CO)[C@@H]5CC[C@@]4(C)[C@]2(C)CC3)n1
- IC50 [11]: 3.45 µM

SMILES: COC(=O)[C@]12CCC(C)(C)C[C@H]1C1=CC[C@@H]3[C@@]4(C)CC[C@@H]5O[C@H](c6ccccc6)OC[C@@]5(C)[C@@H]4CC[C@@]3(C)[C@]1(C)CC2
- EC50 [1]: 2.9 µM

SMILES: CC1(C)CC[C@]2(NC(=O)N3CCCC3)CC[C@]3(C)C(=CC[C@@H]4[C@@]5(C)CC[C@@H]6OC(C)(C)OC[C@@]6(C)[C@@H]5CC[C@]43C)[C@@H]2C1
- EC50 [1]: 92 µM

SMILES: C[C@]12CC[C@H](O)[C@@](C)(CO)[C@@H]1CC[C@]1(C)[C@@H]2CC=C2[C@@H]3C[C@](C)(C(=O)O)[C@@H](O)C[C@]3(C(=O)O)CC[C@]21C
- IC50 [12]: 0.078 µM

SMILES: COC(=O)[C@]12CCC(C)(C)C[C@H]1C1/C(=N/O)C[C@@H]3[C@@]4(C)CC[C@H](OC(C)=O)[C@@](C)(COC(C)=O)[C@@H]4CC[C@@]3(C)[C@]1(C)CC2 (some centres undefined)
- IC50 [13]: 1.88 µM
- IC50 [14]: 21.2 µM

SMILES: O=c1[nH]cc(F)c(=O)[nH]1 [FLUOROURACIL]
- IC50 [13]: 16.4 µM

SMILES: C[C@@H]1O[C@@H](O[C@H]2[C@H](O[C@H]3CC[C@@]4(C)[C@@H](CC[C@]5(C)[C@@H]4CC=C4[C@@H]6CC(C)(C)CC[C@]6(C(=O)O)CC[C@]45C)[C@]3(C)CO)OC[C@H](O[C@@H]3O[C@H](CO)[C@@H](O)[C@H](O)[C@H]3O)[C@@H]2O)[C@H](O)[C@H](O)[C@H]1O [HEDERACOLCHISIDE A]
- IC50 [15]: 5.8 µM

SMILES: CC1(C)CC[C@]2(C(=O)O)CC[C@]3(C)C(=CC[C@@H]4[C@@]5(C)CC[C@H](O)[C@@](C)(CO)[C@@H]5CC[C@]43C)[C@@H]2C1 [HEDERAGENIN]
- IC50 [16]: 17.4 µg/mL (≈ 36.9 µM)
- inhibition (INH) [17]: 64.8%
- IC50 [13]: 35.9 µM
- INH [18]: 10 µM
- MIC [19]: 16 µg/mL (≈ 33.8 µM)
- IC50 [20]: 26.2 µM
- MIC [21]: 128 µg/mL (≈ 271 µM)
- IC50 [22]: 11.8 µM
- IC50 [23]: 1.17 µM
- Kel [24]: 0.96 h⁻¹
- IC50 [11]: > 50 µM
- Tmax [25]: 18.3 min
- IC50 [26]: 1.39 µM
- Activity [3]: 149.47%
- half-life [27]: 44.1 min
- INH [28]: 20 µM
- MIC [29]: 9.7 µg/mL
